Measured values from US20250197368A1 (priority 2020, published 2025).

How the values were obtained:
human α2β3γ2 GABAARs = assay: In vitro electrophysiological recording assay (automated patch-clamp), α2-GABAAR relative efficacy; assay type: cell-based; details: % efficacy normalised to diazepam; GABA EC10-20; concentration generally >= 100 times Ki
In short: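 Relative efficacy is % enhancement of the leak-subtracted GABA EC10-20 peak current, divided by the separately measured diazepam value; compound generally tested at ≥100× Ki after ≥1 min pre-application. Recordings at room temperature, human receptors stably expressed in L(tk^−) (QPatch, −65 mV) or HEK293 (SyncroPatch, −80 mV) cells.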

human α3β3γ2 GABAARs = assay: In vitro electrophysiological recording assay (automated patch-clamp), α3-GABAAR relative efficacy; assay type: cell-based; details: % efficacy normalised to diazepam; GABA EC10-20; concentration generally >= 100 times Ki
Protocol: The efficacy of modulators was evaluated using the automated patch-clamp platforms QPatch16 (Sophion, Copenhagen, Denmark) or SyncroPatch 384PE (Nanion, Germany).
For QPatch electrophysiology testing L(tk^−) cells stably expressing human α1β3γ2, α2β3γ2, α3β3γ2, α5β3γ2 GABAARs were used. HEK293 cells stably expressing human α1β3γ2L, α2β3γ2L, α3β3γ2L and α5β3γ2L GABAARs were used for the SyncroPatch 384PE experiments.
All experiments were carried out at room temperature (20-22° C.) using a standard whole cell procedure and physiological solutions. Gigaseals were formed upon execution of a combined suction/voltage protocol with subsequent increased suction leading to the whole-cell configuration.
The currents recorded were acquired at either 1 KHz or 2 KHz and filtered using a Bessel filter. Whole-cell currents were measured at a holding potential of-65 mV (QPatch) or −80 mV (SyncroPatch).
For QPatch experiments, the extracellular solution contained of: 145 mM NaCl, 4 mM KCl, 1 mM MgCl2, 2 mM CaCl2), 10 mM HEPES, 10 mM D-glucose (pH 7.4), and the intracellular solution consisted of: 96 mM KCl, 28 mM CsCl, 25 mM KOH, 4.3 mM CaCl2), 1.4 mM MgCl2, 10 mM EGTA, 10 mM HEPES, 3 mM MgATP (pH 7.2). The osmolarities of the extracellular and intracellular solutions were 305 and 295 mOsm respectively.
For SyncroPatch experiments, the extracellular recording solution contained: 140 mM NaCl, 4 mM KCl, 2 mM CaCl2), 1 mM MgCl2, 10 mM HEPES, 5 mM glucose (pH 7.4 with NaOH and osmolarity of c. 300-310 mOsm). The intracellular recording solution consisted of: 90 mM KCl, 50 mM KF, 1.5 mM MgCl2, 11.1 mM EGTA and 10 mM HEPES (pH 7.2 with KOH and osmolarity of c. 300 mOsm). 2 mM of NaATP was added to the intracellular solution on the day of testing.
The effects of modulators were evaluated in the presence of a submaximal GABA concentration, giving typically less than 30% activation of the response elicited by a saturating GABA concentration. To check and ensure baseline current stability before compound addition, two to five consecutive applications of GABA EC10-20 separated by wash steps were performed before compound addition. The test compound was applied 1 min at least prior to co-application with GABA EC10-20. Following a further wash step, a saturating concentration of GABA was applied at the end of each recording, allowing the accurate evaluation for each cell of the percentage baseline activation elicited by the submaximal GABA applied.
The compounds were first dissolved in DMSO as a 10 mM stock and then further diluted to the testing concentrations so that the final DMSO concentration in the extracellular recording solution was 0.1% (QPatch) or 0.2% (SyncroPatch).
The % efficacy of modulators was determined from the GABA elicited currents recorded in the presence and absence of the test compound, using the formula:
[((compound peak current−leak)−(GABA peak current-leak))/(GABA peak current−leak)]*100,
where ‘leak’ is the leak baseline current at the holding potential, ‘compound peak current’ is the current elicited by co-application of compound and GABA, and ‘GABA peak current’ is the current elicited by GABA alone at the last GABA application before compound addition. The results were presented as ‘relative efficacy’ for each compound generally at a concentration equal or higher than 100 times their determined Ki. The relative efficacy of a compound was calculated by normalising its % efficacy to the corresponding % efficacy of diazepam that was separately determined.

[1] = molecular target: human α3β3γ2 GABAARs (benzodiazepine site) (Homo sapiens (Human), UniProt P18507+P34903); assay: In vitro radioligand binding assay ([3H]Ro15-1788 displacement), α3-GABAAR Ki; details: L(tk-) cell membranes, 4 nM [3H]Ro15-1788
Protocol: The affinity (Ki) of compounds for the benzodiazepine site of human recombinant GABAARs was measured by their ability to inhibit the binding of the selective benzodiazepine antagonist [^3H]Ro15-1788 ([^3H] flumazenil).
Mouse L(tk^−) cells stably expressing human α1β3γ2, α2β3γ2, α3β3γ2, α5β3γ2 GABAARs were generated by transfection of the individual subunits in the dexamethasone-inducible expression vector pMSGneo in mouse L(tk^−) cells (Hadingham et al., 1993, Mol. Pharmacol. 43:970-975 and 1993, Mol. Pharmacol. 44:1211-1218).
L(tk^−) cells stably expressing human α1β3γ2, α2β3γ2, α3β3γ2, α5β3γ2 GABAARs were maintained in DMEM F12 medium supplemented with 10% Foetal Bovine Serum, 1% Penicillin/Streptomycin and 1 mg/mL Geneticin G418 in an incubator at 37° C. with a humidified atmosphere with 5% CO2. Dexamethasone was added to the culture medium to induce GABAAR expression.
L(tk−) cells were harvested and membranes were prepared for each receptor combination in either TE buffer (10 mM Tris·CI/0.1 mM EDTA, pH 7.5) or phosphate buffer (K2PO4 10 mM, pH 7.0) (Hadingham et al. (1992) Proc. Natl. Acad. Sci. USA; 89 (14): 6378-82). Protein concentration, receptor expression and the Kd of [^3H]Ro15-1788 were determined before Ki value of the compounds were evaluated. For Kd evaluation, saturation binding curves were obtained by incubating membrane with various concentrations of [^3H]Ro15-1788 (82.5 Ci/mM), with nonspecific binding measured in the presence of 1-3 μM TP003.
For Ki evaluation, cell membranes were incubated with 4 nM [^3H]Ro15-1788 along with a range of concentrations of test compound. Nonspecific binding was determined using 1-3 μM TP003. All incubations were performed for 1 hour at 4° C. in assay buffer. The total assay volume was 0.5 mL, containing 40 μg/well α1β3γ2, 30 μg/well α2β3γ2, 40 μg/well α3β3γ2 and 30 μg/well for α5β3γ2 of membrane protein. Incubations were terminated by filtration and washing with ice cold Tris-HCl buffer (50 mM, pH=7.4) over Whatman GF/B filters and the radioactivity of the filters was measured using liquid scintillation counting.
The % inhibition of [^3H]Ro15-1788 binding was plotted as a function of compound concentration and the IC50 calculated. From the IC50, the affinity (Ki) was calculated using the method of Cheng and Prusoff using the Kd values obtained for [^3H]Ro15-1788.

[2] = molecular target: human α2β3γ2 GABAARs (benzodiazepine site) (Homo sapiens (Human), UniProt P18507+P47869); assay: In vitro radioligand binding assay ([3H]Ro15-1788 displacement), α2-GABAAR Ki
Chain of human α2β3γ2 GABAARs (benzodiazepine site) (P47869 29-451): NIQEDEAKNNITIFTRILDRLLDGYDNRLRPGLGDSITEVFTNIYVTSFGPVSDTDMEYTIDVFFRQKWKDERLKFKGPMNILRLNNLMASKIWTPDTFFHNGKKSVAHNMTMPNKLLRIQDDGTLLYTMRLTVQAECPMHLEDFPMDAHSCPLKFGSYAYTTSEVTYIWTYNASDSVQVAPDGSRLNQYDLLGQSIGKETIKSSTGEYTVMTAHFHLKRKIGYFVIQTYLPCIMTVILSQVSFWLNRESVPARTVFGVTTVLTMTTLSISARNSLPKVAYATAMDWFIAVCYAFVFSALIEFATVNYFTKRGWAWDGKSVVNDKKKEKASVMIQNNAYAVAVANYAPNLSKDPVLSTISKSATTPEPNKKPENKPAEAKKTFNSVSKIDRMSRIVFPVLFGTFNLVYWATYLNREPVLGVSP
Chain of human α2β3γ2 GABAARs (benzodiazepine site) (P28472 26-473 partner): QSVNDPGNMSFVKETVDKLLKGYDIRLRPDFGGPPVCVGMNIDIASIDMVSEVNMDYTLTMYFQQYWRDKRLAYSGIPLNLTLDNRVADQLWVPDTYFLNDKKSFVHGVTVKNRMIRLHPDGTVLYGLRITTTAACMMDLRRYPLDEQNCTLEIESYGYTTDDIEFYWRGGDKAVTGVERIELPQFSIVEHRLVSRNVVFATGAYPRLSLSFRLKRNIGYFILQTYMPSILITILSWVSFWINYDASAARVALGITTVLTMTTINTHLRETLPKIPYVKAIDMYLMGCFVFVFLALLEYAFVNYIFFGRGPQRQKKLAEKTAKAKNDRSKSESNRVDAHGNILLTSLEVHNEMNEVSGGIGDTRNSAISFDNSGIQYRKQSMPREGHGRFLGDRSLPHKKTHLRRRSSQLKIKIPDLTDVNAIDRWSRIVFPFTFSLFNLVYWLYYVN
Chain of human α2β3γ2 GABAARs (benzodiazepine site) (P18507 40-475): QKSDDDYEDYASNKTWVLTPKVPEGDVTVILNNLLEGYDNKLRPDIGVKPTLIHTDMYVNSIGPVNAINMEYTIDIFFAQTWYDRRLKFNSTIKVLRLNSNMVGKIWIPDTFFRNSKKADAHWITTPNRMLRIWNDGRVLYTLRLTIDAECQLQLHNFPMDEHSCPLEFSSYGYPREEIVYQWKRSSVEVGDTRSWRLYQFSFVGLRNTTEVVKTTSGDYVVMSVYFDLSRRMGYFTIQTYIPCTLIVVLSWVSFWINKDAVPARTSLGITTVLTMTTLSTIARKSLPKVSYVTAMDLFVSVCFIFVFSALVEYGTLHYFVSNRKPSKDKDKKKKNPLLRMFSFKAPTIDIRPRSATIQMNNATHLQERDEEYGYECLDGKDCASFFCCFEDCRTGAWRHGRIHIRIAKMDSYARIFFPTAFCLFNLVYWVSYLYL
In short: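 Ki derived via Cheng-Prusoff from IC50 for displacement of 4 nM [3H]Ro15-1788 (Kd from saturation binding), with 1-3 μM TP003 defining nonspecific binding. Incubation lasted 1 h at 4° C on membranes of induced L(tk−) cells stably transfected with the human subunits; detection by filtration and scintillation counting.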

Structure (SMILES) | α2-GABAAR Relative Efficacy (vs. Diazepam) (human α2β3γ2 GABAARs) | α3-GABAAR Relative Efficacy (vs. Diazepam) (human α3β3γ2 GABAARs) | Ki [1] [nM] | Ki [2] [nM]
CCCNC(=O)c1c(N)c2cccc(-c3nc(C)ccc3F)c2[nH]c1=O [Example 7, 4-Amino-8-(3-fluoro-6-methyl-2-pyridyl)-2-oxo-N-propyl-1H-quinoline-3-carboxamide] | 0.16 | 0.43 | 1.17 | 0.59
CCCNC(=O)c1c(N)c2cccc(-c3nc(CO)ccc3F)c2[nH]c1=O [Example 11, 4-Amino-8-[3-fluoro-6-(hydroxymethyl)-2-pyridyl]-2-oxo-N-propyl-1H-quinoline-3-carboxamide] | 0.32 | 0.24 | 4.38 | 2.13
CCCNC(=O)c1c(N)c2cccc(-c3cncc(CO)c3)c2[nH]c1=O [Example 25, 4-Amino-8-[5-(hydroxymethyl)-3-pyridyl]-2-oxo-N-propyl-1H-quinoline-3-carboxamide] | 0.15 | 0.10 | – | 3.4
CCCNC(=O)c1c(N)c2cccc(-c3ccnc(CO)c3)c2[nH]c1=O [Example 32, 4-Amino-8-[2-(hydroxymethyl)-4-pyridyl]-2-oxo-N-propyl-1H-quinoline-3-carboxamide] | 0.24 | 0.29 | 6.86 | 3.09
CCCNC(=O)c1c(N)c2cccc(-c3cc(OC)ncc3F)c2[nH]c1=O [Example 34, 4-Amino-8-(5-fluoro-2-methoxy-4-pyridyl)-2-oxo-N-propyl-1H-quinoline-3-carboxamide] | 0.49 | 0.47 | 1.58 | 0.68
CCCNC(=O)c1c(N)c2cccc(-c3nc(OC)ncc3F)c2[nH]c1=O [Example 42, 4-Amino-8-(5-fluoro-2-methoxy-pyrimidin-4-yl)-2-oxo-N-propyl-1H-quinoline-3-carboxamide] | 0.25 | 0.21 | 0.64 | 0.56
CCCNC(=O)c1c(N)c2cccc(-c3nc(C)[nH]c3C)c2[nH]c1=O [Example 52, 4-Amino-8-(2,5-dimethyl-1H-imidazol-4-yl)-2-oxo-N-propyl-1H-quinoline-3-carboxamide] | 0.53 | 0.41 | – | 6.61
[2H]C([2H])([2H])C([2H])([2H])C([2H])([2H])NC(=O)c1c(N)c2cccc(-c3cnccc3OC)c2[nH]c1=O [Example 62, 4-Amino-8-(4-methoxypyridin-3-yl)-2-oxo-N-(propyl-d7)-1,2-dihydroquinoline-3-carboxamide] | 0.28 | 0.44 | 5.41 | 6.85
COc1ccncc1-c1cccc2c(N)c(C(=O)NCCC(F)(F)F)c(=O)[nH]c12 [Example 69, 4-Amino-8-(4-methoxypyridin-3-yl)-2-oxo-N-(3,3,3-trifluoropropyl)-1,2-dihydroquinoline-3-carboxamide] | 0.6 | 0.59 | 60.5 | 26.5
CCCNC(=O)c1c(N)c2cccc(-c3cc(OCc4ccccn4)ccc3F)c2[nH]c1=O [Example 85, 4-Amino-8-[2-fluoro-5-(2-pyridylmethoxy)phenyl]-2-oxo-N-propyl-1H-quinoline-3-carboxamide] | 0.32 | 0.42 | 0.7 | 0.3
CCCNC(=O)c1c(N)c2cccc(-c3cc(OCc4cccc(C#N)n4)ccc3F)c2[nH]c1=O [Example 91, 4-Amino-8-(5-((6-cyanopyridin-2-yl)methoxy)-2-fluorophenyl)-2-oxo-N-propyl-1,2-dihydroquinoline-3-carboxamide] | 0.18 | 0.29 | 1.3 | 0.46
CCCNC(=O)c1c(N)c2cccc(-c3cc(OCc4ccc(F)cn4)ccc3F)c2[nH]c1=O [Example 92, 4-Amino-8-[2-fluoro-5-[(5-fluoro-2-pyridyl)methoxy]phenyl]-2-oxo-N-propyl-1H-quinoline-3-carboxamide] | 0.21 | 0.26 | 0.81 | 0.48
CCCNC(=O)c1c(N)c2cccc(-c3cc(OCc4ccc(C)nc4)ccc3F)c2[nH]c1=O [Example 110, 4-Amino-8-[2-fluoro-5-[(6-methyl-3-pyridyl)methoxy]phenyl]-2-oxo-N-propyl-1H-quinoline-3-carboxamide] | 0.25 | 0.30 | 0.97 | 0.59
CCCNC(=O)c1c(N)c2cccc(-c3cccc(OCc4cccnc4)n3)c2[nH]c1=O [Example 111, 4-Amino-2-oxo-N-propyl-8-(6-(pyridin-3-ylmethoxy)pyridin-2-yl)-1,2-dihydroquinoline-3-carboxamide] | 0.27 | 0.47 | 0.41 | 0.23
